Source: article PMC3471809 (Bioorganic & medicinal chemistry, 2012)
In brackets after ≈: the same amount, converted by molar mass. Read-outs that look alike come from different tables or passages of the source.

Experiments:
[1] = target: T1, S. aureus PlsY (SaPlsY) (Staphylococcus aureus, UniProt P67164); assay: biochemical; assay type: E. coli FB23281 (delta plsY) membranes
T1 sequence (P67164 1-202): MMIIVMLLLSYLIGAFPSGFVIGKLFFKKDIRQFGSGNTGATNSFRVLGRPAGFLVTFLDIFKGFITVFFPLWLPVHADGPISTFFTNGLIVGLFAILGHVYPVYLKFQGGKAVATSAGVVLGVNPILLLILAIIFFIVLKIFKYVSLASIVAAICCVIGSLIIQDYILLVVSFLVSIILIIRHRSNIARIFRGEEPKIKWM

[2] = system: S. pneumoniae R6; assay: microbe, parasite or virus in culture; conditions: Streptococcus pneumoniae, R6, read-out: MIC
[3] = target: T1, S. aureus PlsY (SaPlsY); assay: biochemical; assay type: E. coli FB23281 (delta plsY) membranes; remark: listed apart in the source

| Structure (SMILES) | MIC [2] | other results |
| --- | --- | --- |
| CCCCCCCCCCCCCCCC(=O)NS(=O)(=O)OC1CCNCC1 [compound 6] |  | IC50 [1]: > 100 µM |
| CCCCCCCCCCCCCCCC(=O)NS(=O)(=O)Oc1ccc(CC(=O)OC)cc1 [compound 14, Methyl 2-(4-(N-palmitoylsulfamoyloxy)phenyl)acetate] | 100 µg/mL (≈ 207 µM) |  |
| CCCCCCCCCCCCCCCC(=O)NS(=O)(=O)Oc1ccc(C(=O)OCC)cc1 [compound 15, Ethyl 4-(N-palmitoylsulfamoyloxy)benzoate] | 200 µg/mL (≈ 414 µM) |  |
| CCCCCCCCCCCCCCCC(=O)NS(=O)(=O)Oc1ccc(CCN)cc1 [compound 16] |  | IC50 [3]: > 100 µM |
| CCCCCCCCCCCCCCCC(=O)NS(=O)(=O)Oc1ccc(-c2ccc([N+](=O)[O-])cc2)cc1 [compound 18, 4'-nitrobiphenyl-4-yl palmitoylsulfamate] | 100 µg/mL (≈ 188 µM) |  |
| CCCCCCCCCCCCCCCC(=O)NS(=O)(=O)Oc1ccc2c(c1)OCO2 [compound 19, Benzo[d][1,3]dioxol-5-yl palmitoylsulfamate] | 200 µg/mL (≈ 439 µM) |  |
| CCCCCCCCCCCCCCCC(=O)NS(=O)(=O)Oc1ccc2ncccc2c1 [compound 20, Quinolin-6-yl palmitoylsulfamate] | > 200 µg/mL |  |
| CCCCCCCCCCCCCCCC(=O)NS(=O)(=O)Oc1ccc2c(OS(N)(=O)=O)coc2c1 [compound 21] | > 200 µg/mL |  |
